Assay results: patent publication US20030133918A1, “Methods for ex vivo propagation of somatic stem cells” (priority 2001, published 2003)

Key:
[1] = system: Rat liver epithelial cells; assay: Clonal derivation of rat liver epithelial cells by limiting dilution in 96-well plates; type: cell-based
From the text: Using xanthosine (Xs) as a pharmacological agent to switch tissue stem cells from their default asymmetric cell kinetics program to exponential kinetics, we attempted to derive clonal rat liver epithelial stem cell lines that retained the ability to divide with asymmetric cell kinetics when Xs was removed. Rat liver epithelial cells found in the low-speed supernatant of centrifuged cells from in situ collagenase-perfused livers were clonally-derived by limiting dilution in 96-well plates in the absence or presence of added Xs (200 μM or 400 μM). Colonies with epithelial cell morphology arose with similar efficiency under both conditions (4.1±0.31 percent for both 480 Xs− wells and 960 Xs+ wells). The efficiency of establishing cell strains from these initial colonies was also similar, 50% (3/6) for colonies expanded in Xs-free medium and 65% (11/17) for colonies derived in Xs-containing medium. Each type of cell strain has now been maintained continuously in culture for >80 cell doublings. Early passage cells were cryo-preserved in liquid nitrogen and can be re-established in culture after thawing.

[2] = system: rat liver epithelial cell strains; assay: Colony formation assay of rat liver epithelial cell strains in Xs-free or Xs-containing medium; type: cell-based; details: for Colony formation efficiency Xs+/Xs− Ratio: 50 μM xanthosine vs Xs-free medium; for Colony formation efficiency, Xs+ (Mean % ± SD; n = 6): 50 μM xanthosine, 14 days, 200 cells per well
From the text: Three Xs-free (“Xs-F”) cell strains and 8 Xs-derived (“Xs-D”) cell strains were chosen for cell kinetics analysis. Despite the similarities in their derivation course, there is a remarkable difference in the growth properties of Xs-F and Xs-D cell strains (see Table 1). […] This is a highly significance difference (p=0.004). […] The estimated mean increase in colony formation efficiency for Xs-D strains in Xs-containing medium is 11-fold, ranging from a 10% (Xs-D9; not statistically significant) to a 40-fold increase (Xs-D13; p<0.0001). The growth of Xs-F strains was unaffected by Xs even at the higher concentration of 100 μM (data not shown). [table]

Structure (SMILES): O=c1[nH]c(=O)c2ncn([C@@H]3O[C@H](CO)[C@@H](O)[C@H]3O)c2[nH]1 [Xs, xanthosine]
- Efficiency with which colonies with epithelial cell morphology arose ([1]; 960 Xs+ wells, added Xs 200 μM or 400 μM, same value for 480 Xs− wells): 4.1±0.31%
- Efficiency of establishing cell strains from initial colonies ([1]; colonies derived in Xs-containing medium (11/17), Xs-free 50% (3/6)): 65%
- Growth of Xs-F strains ([2]; Xs-F strains, even at the higher concentration of 100 μM, data not shown): unaffected
- Colony formation efficiency Xs+/Xs− Ratio ([2]; cell strain Xs-D4): 1.5
- Colony formation efficiency, Xs+ (Mean % ± SD; n = 6) ([2]; cell strain Xs-D4): 8.0 ± 1.1%
- Colony formation efficiency Xs+/Xs− Ratio ([2]; cell strain Xs-D6): 1.4
- Colony formation efficiency, Xs+ (Mean % ± SD; n = 6) ([2]; cell strain Xs-D6): 5.3 ± 1.8%
- Colony formation efficiency Xs+/Xs− Ratio ([2]; cell strain Xs-D7): ≧22
- Colony formation efficiency, Xs+ (Mean % ± SD; n = 6) ([2]; cell strain Xs-D7): 6.7 ± 2.2%
- Colony formation efficiency Xs+/Xs− Ratio ([2]; cell strain Xs-D8): 17
- Colony formation efficiency, Xs+ (Mean % ± SD; n = 6) ([2]; cell strain Xs-D8): 22 ± 3.6%
- Colony formation efficiency Xs+/Xs− Ratio ([2]; cell strain Xs-D9): 1.1
- Colony formation efficiency, Xs+ (Mean % ± SD; n = 6) ([2]; cell strain Xs-D9): 11 ± 2.6%
- Colony formation efficiency Xs+/Xs− Ratio ([2]; cell strain Xs-D13): 40
- Colony formation efficiency, Xs+ (Mean % ± SD; n = 6) ([2]; cell strain Xs-D13): 12 ± 2.7%
- Colony formation efficiency Xs+/Xs− Ratio ([2]; cell strain Xs-D14): 1.3
- Colony formation efficiency, Xs+ (Mean % ± SD; n = 6) ([2]; cell strain Xs-D14): 0.4 ± 0.67%
- Colony formation efficiency Xs+/Xs− Ratio ([2]; cell strain Xs-D15): 5.3
- Colony formation efficiency, Xs+ (Mean % ± SD; n = 6) ([2]; cell strain Xs-D15): 10 ± 1.6%
- Colony formation efficiency Xs+/Xs− Ratio ([2]; cell strain Xs-F1): 0.9
- Colony formation efficiency, Xs+ (Mean % ± SD; n = 6) ([2]; cell strain Xs-F1): 9.8 ± 2.2%
- Colony formation efficiency Xs+/Xs− Ratio ([2]; cell strain Xs-F2): 1.0
- Colony formation efficiency, Xs+ (Mean % ± SD; n = 6) ([2]; cell strain Xs-F2): 29 ± 3.7%
- Colony formation efficiency Xs+/Xs− Ratio ([2]; cell strain Xs-F3): 1.0
- Colony formation efficiency, Xs+ (Mean % ± SD; n = 6) ([2]; cell strain Xs-F3): 18 ± 3.7%
- Estimated mean increase in colony formation efficiency for Xs-D strains in Xs-containing medium ([2]; mean of 8 Xs-D strains, Xs-containing vs Xs-free medium): 11 fold
- Increase in colony formation efficiency in Xs-containing medium ([2]; strain Xs-D9, not statistically significant): 10%
- Increase in colony formation efficiency in Xs-containing medium ([2]; strain Xs-D13, p<0.0001): 40 fold
